Results published in patent US20050260136A1, “Topical immune competency diagnostic compositions and methods of use” (priority 2004, published 2005).

Key:
[1] = system: HIV sero-positive AIDS patients; test: Topical DPC skin reaction test (Reactors/Non-Reactors) in a 28-day observational clinical trial; type: in vivo, human; details: for # Non-Reactor Patients / # Non-Reactor Patients (%) / # Reactor Patients / # Reactor Patients (%): right forearm
Procedure: (§1) For the examples, HIV sero-positive AIDS patients were tested based on HIV sero-positivity for a 28-day observational clinical trial. 40 subjects completed the study. Topical 0.1 ml applications of 0.4%, 0.2%, 0.1%, 0.05% Diphenylcyclopropenone in a proprietary anhydrous skin penetrating vehicle plus the vehicle placebo were made to the inner aspect of the forearms of patients and covered with a 1 inch adhesive bandage. Skin reactivity scores of a 4-point scaled based on induration and erythema were recorded weekly, as were side effects to the topical treatments.
For the examples, skin reaction scores were assigned using the following scale:
For the examples, patients having a skin reaction score of +2, +3 and +4 were considered to have a positive response and are labeled as “Reactors”; patients having a skin reaction score of 0 and +1 were considered to not have a response and are labeled as “Non-Reactors”.
Skin Reactions Scores as indicators of immune function responses following single applications of 0.4%, 0.2%, 0.1% and 0.05% DPC compositions were used to distinguish between patients with T Cell CD4 blood counts less than 300 per cu/mm and patients with T Cell CD4 counts higher than 300 per cu/mm.

[2] = system: HIV sero-positive AIDS patients; test: Side effects of the topical treatments in the 28-day clinical trial; type: in vivo, human; details: 28-day study
Procedure: as §1
Subjects with CD4 counts less than 300 cu/mm were non-skin reactive. This was found in 36 of the 40 subjects. […] Statistical Sensitivity was 87.4% and Specificity was 100% with the 0.4% Topical Diphenylcyclopropenone Solution selected as the optimal dosage concentration. […] None of the subjects withdrew because of side effects.

[3] = 0.05% DPC applied, patients with CD4 <300 cu/mm
[4] = 0.05% DPC applied, patients with CD4 >300 cu/mm
[5] = 0.1% DPC applied, patients with CD4 <300 cu/mm
[6] = 0.1% DPC applied, patients with CD4 >300 cu/mm
[7] = 0.2% DPC applied, patients with CD4 <300 cu/mm
[8] = 0.2% DPC applied, patients with CD4 >300 cu/mm
[9] = 0.4% DPC applied, patients with CD4 <300 cu/mm
[10] = 0.4% DPC applied, patients with CD4 >300 cu/mm
[11] = combined 0.1% + 0.05% DPC dosages, patients with CD4 <300 cu/mm
[12] = combined 00.1% + 0.05% DPC dosages, patients with CD4 >300 cu/mm
[13] = combined 0.4% + 0.2% DPC dosages, patients with CD4 <300 cu/mm
[14] = combined 0.4% + 0.2% DPC dosages, patients with CD4 >300 cu/mm

O=c1c(-c2ccccc2)c1-c1ccccc1 [DPC, Diphenylcyclopropenone]
# Non-Reactor Patients [1, 3]: 2
# Non-Reactor Patients (%) [1, 3]: 100%
# Reactor Patients [1, 3]: 0 (0%)
# Reactor Patients (%) [1, 3]: 0 (0%)
# Non-Reactor Patients [1, 4]: 8
# Non-Reactor Patients (%) [1, 4]: 100%
# Reactor Patients [1, 4]: 0 (0%)
# Reactor Patients (%) [1, 4]: 0 (0%)
# Non-Reactor Patients [1, 5]: 2
# Non-Reactor Patients (%) [1, 5]: 100%
# Reactor Patients [1, 5]: 0 (0%)
# Reactor Patients (%) [1, 5]: 0 (0%)
# Non-Reactor Patients [1, 6]: 4
# Non-Reactor Patients (%) [1, 6]: 80%
# Reactor Patients [1, 6]: 1
# Reactor Patients (%) [1, 6]: 20%
# Non-Reactor Patients [1, 7]: 2
# Non-Reactor Patients (%) [1, 7]: 40%
# Reactor Patients (%) [1, 7]: 60%
# Non-Reactor Patients (%) [1, 8]: 28.6%
# Reactor Patients [1, 8]: 5
# Reactor Patients (%) [1, 8]: 71.4%
# Non-Reactor Patients (%) [1, 9]: 100%
# Reactor Patients (%) [1, 9]: 0 (0%)
# Non-Reactor Patients ([1]; 0.4% DPC applied, patients with CD4 <300 cu/mm, Non-Reactor = score 0 or +1): 4
# Non-Reactor Patients (%) [1, 10]: 14.3%
# Reactor Patients [1, 10]: 6
# Reactor Patients (%) [1, 10]: 85.7%
subjects in whom skin reactivity agreed with CD4 count (>300 cu/mm reactive, <300 cu/mm non-skin reactive) ([1]; all 40 subjects of the study): 36 of the 40
Non-Reactors [1, 11]: 4
Non-Reactors (%) [1, 11]: 100%
Reactors [1, 11]: 0 (0%)
Reactors (%) [1, 11]: 0 (0%)
Non-Reactors [1, 12]: 12
Non-Reactors (%) [1, 12]: 92.3%
Reactors [1, 12]: 1
Reactors (%) [1, 12]: 7.7%
Non-Reactors [1, 13]: 6
Non-Reactors (%) [1, 13]: 67%
Reactors [1, 13]: 3
Reactors (%) [1, 13]: 33%
Non-Reactors [1, 14]: 3
Non-Reactors (%) [1, 14]: 21.4%
Reactors [1, 14]: 11
Reactors (%) [1, 14]: 78.6%
subjects who withdrew because of side effects ([2]; 40 subjects): None
Side effects ([2]; topical 0.1 ml applications of 0.05-0.4% DPC): minimal and were limited to adenopathies that were self-limited and disappeared upon completion of the study
